We go through twelve molecules from US20260356851A1, “TRICYCLIC COMPOUNDS AND USES THEREOF” (HUTCHMED LIMITED, priority 2023, published 2026).

Broadly, the IC50 is the concentration at which inhibition is half-maximal.

What all share (type): cell-based
In assay [1] the target is T1, pERK1/2 (Thr202/Tyr204), NCI-1H358 (KRAS G12C) (Homo sapiens, UniProt P01116, G12C).
T1 construct: pERK1/2 HTRF read-out
The assay can be described thus: Assay of intracellular pERK1/2 (Thr202/Tyr204) phosphorylation in NCI-H358 cells (KRAS G12C). The settings on record: pERK1/2, 2 days, read-out: NCI-H358 (KRAS G12C) IC50. How it is done:
(§1) Example 2: Assay of intracellular pERK1/2 (Thr202/Tyr204)phosphorylation
(§2) 1. Reagents and materials: • pERK1/2 (Thr202/Tyr2O4) HIRE kit, Cisbio, Cat #64ERKPEH; • OptiPlate™-384-well plate, PerkinElmer, Cat #6007299; • 96-well plate, Coming, Cat #353072; • Instrument: EnVision2104, PerkinElmer; • Cell lines: NCI-1H358 (KRAS G12C), ATCC, CRL-5807; PANC-1 (KRAS G121D), ATCC, CRL-1469; NCI-1H441 (KRAS G12V), ATCC, HTB-174.
(§3) 2. Preparation of Reaction Solutions
(§4) • A test compound was dissolved in DMSO, diluted to 200.0 μM and further diluted 3-fold to prepare a series of test compounds at concentrations of 66.7, 22.2, 7.4, 2.5, 0.82, 0.27, 0.09 μM etc. Then 10 μL of the compound at different dilution concentrations was added to 190 μL of a DMEM medium to prepare a 10× test compound; • 1× cell lysis buffer: 4× cell lysis stock solution (provided by the kit) was diluted 4-fold with deionized water, and then 10% 100× blocking stock solution (provided by the kit) was added thereto. • pERK1/2 detection solution (prepared just before use): the pERK1/2 d2 antibody (provided by the kit) and pERK1/2 Cryptate antibody (provided by the kit) were diluted with the detection solution (provided by the kit) at a ratio of 1:1:38.
(§5) • Cells were inoculated into a 96-well plate (100 μL/well) at a density of 10000-12000/well. No cell was inoculated into a negative control well, and only the cell medium was added at 100 μL/well. The plate was placed in a cell incubator at 5% CO2 and 37° C. overnight. • 10 μL of the 10× test compound was added to the 100 μL cell culture 96-well plate; both the positive control well (that is, the control hole without chemical compound treatment) and the negative control well were charged with 10 μL of a 5% DMSO culture solution; and the plate was cultured in a cell incubator at 5% CO2 and 37° C. for 2 days. • The medium in the 96-well plate was removed; 50 μL of the 1× cell lysis buffer was added to each of the wells; the plate was placed in a microplate shaker; and lysis under shaking was carried out at 900 rpm at room temperature for 1 hour. • 16 μL of the lysis buffer in the 96-well plate was taken and transferred to a 384-well plate, followed by centrifugation at 1000 rpm for 30 s; then 4 μL of pERK1/2 detection solution was added to each well, followed by centrifugation at 1000 rpm for 30 s; and the 384-well plate was sealed with a sealing membrane and incubated at 25° C. on a low-speed shaker at 100 rpm in the dark for 2 hours. • The fluorescence value (RFU) of each well was detected on EnVision2104, with an emission wavelength 1 being 665 nm and an emission wavelength 2 being 615 nm.
(§6) Fluorescence ratio=fluorescence value665 nm/fluorescence value615 nm
(§7) Inhibition rate (%)=100−((fluorescence ratio of compound well−fluorescence ratio of negative control well)/(fluorescence ratio of positive control well−fluorescence ratio of negative control well))×100
(§8) wherein: • the fluorescence ratio of compound well refers to the fluorescence ratio of the well containing the test compounds; • the fluorescence ratio of negative control well refers to the fluorescence ratio of the cell-free control well; • the fluorescence ratio of positive control well refers to the fluorescence ratio of the cell well treated with 0.5% DMSO.
(§9) IC50 value: obtained by calculation using XL-Fit 5.0 software.

Assay [2] addresses T2, pERK1/2 (Thr202/Tyr204), NCI-1H441 (KRAS G12V) (Homo sapiens, UniProt P01116, G12V).
T2 construct: pERK1/2 HTRF read-out
The assay is described as follows: Assay of intracellular pERK1/2 (Thr202/Tyr204) phosphorylation in NCI-H441 cells (KRAS G12V). The settings on record: pERK1/2, 2 days, read-out: NCI-H441 (KRAS G12V) IC50. How it is done:
as §1, §2, §3, §4, §5, §6, §7, §8, §9

Assay [3] addresses T3, pERK1/2 (Thr202/Tyr204), PANC-1 (KRAS G121D) (Homo sapiens, UniProt P01116, G12D).
T3 construct: pERK1/2 HTRF read-out
The assay can be described thus: Assay of intracellular pERK1/2 (Thr202/Tyr204) phosphorylation in PANC-1 cells (KRAS G12D). The settings on record: pERK1/2, 2 days, read-out: PANC-1 (KRAS G12D) IC50. How it is done: as §1, §2, §3, §4, §5, §6, §7, §8, §9

Each structure is given as a SMILES string.

T3 sequence (P01116 1-188 isoform P01116-2 G12D): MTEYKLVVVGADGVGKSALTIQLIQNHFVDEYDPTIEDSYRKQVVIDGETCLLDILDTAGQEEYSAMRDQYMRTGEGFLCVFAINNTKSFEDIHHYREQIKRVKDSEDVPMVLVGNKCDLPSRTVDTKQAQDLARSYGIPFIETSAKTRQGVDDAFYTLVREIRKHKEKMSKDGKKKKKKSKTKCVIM
T2 sequence (P01116 1-188 isoform P01116-2 G12V): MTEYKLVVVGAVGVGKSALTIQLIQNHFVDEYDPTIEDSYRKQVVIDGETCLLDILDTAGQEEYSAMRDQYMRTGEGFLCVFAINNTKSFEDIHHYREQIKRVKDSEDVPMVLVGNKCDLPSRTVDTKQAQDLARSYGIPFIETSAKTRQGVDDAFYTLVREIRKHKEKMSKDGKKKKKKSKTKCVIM
T1 sequence (P01116 1-188 isoform P01116-2 G12C): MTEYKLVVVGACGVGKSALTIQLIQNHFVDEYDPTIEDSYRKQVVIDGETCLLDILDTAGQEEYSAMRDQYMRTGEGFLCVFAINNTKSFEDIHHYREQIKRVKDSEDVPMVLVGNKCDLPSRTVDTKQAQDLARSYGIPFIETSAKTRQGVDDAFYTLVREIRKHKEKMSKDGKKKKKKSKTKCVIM

As for `C[C@H](c1cccnc1N)N1CCOc2nc(-c3cc(O)cc(Cl)c3C3CC3)c(F)c3nc(OC[C@@H]4CCN4CC(F)F)nc1c23` (single isomer, unassigned) [Compound 20, 3-(10-((R or S)-1-(2-aminopyridin-3-yl)ethyl)-2-(((S)-1-(2,2-difluoroethyl)azetidin-2-yl)methoxy)-4-fluoro-9,10-dihydro-8H-7-oxa-1,3,6,10-tetraazacyclohepta[de]naphthalen-5-yl)-5-chloro-4-cyclopropylphenol], the values for the IC50 in assay [1], in assay [2] and in assay [3] were 783 nM, greater than 1000 nM and greater than 1000 nM, respectively.

For `CC(c1cccnc1N)N1CCOc2nc(-c3cc(O)cc(Cl)c3C3CC3)c(F)c3nc(OC[C@@H]4CCN4CC(F)F)nc1c23` (single isomer, unassigned) [Compound 21, 3-(10-((R or S)-1-(2-aminopyridin-3-yl)ethyl)-2-(((S)-1-(2,2-difluoroethyl)azetidin-2-yl)methoxy)-4-fluoro-9,10-dihydro-8H-7-oxa-1,3,6,10-tetraazacyclohepta[de]naphthalen-5-yl)-5-chloro-4-cyclopropylphenol], the IC50 worked out at 0.5 nM in assay [1], 3 nM in assay [2] and 82 nM in assay [3].

For the molecule `CC(c1cccnc1N)N1CCOc2nc(-c3cc(O)cc(F)c3C3CC3)c(F)c3nc(OC[C@@H]4CCN4CC(F)F)nc1c23` (single isomer, unassigned) [Compound 23, 3-(10-((R or S)-1-(2-aminopyridin-3-yl)ethyl)-2-(((S)-1-(2,2-difluoroethyl)azetidin-2-yl)methoxy)-4-fluoro-9,10-dihydro-8H-7-oxa-1,3,6,10-tetraazacyclohepta[de]naphthalen-5-yl)-4-cyclopropyl-5-fluorophenol], the IC50 in assay [1], in assay [2] and in assay [3] was greater than 1000 nM each time.

For the molecule `CC(c1cccnc1N)N1CCOc2nc(-c3cc(O)cc(F)c3C3CC3)c(F)c3nc(OC[C@@H]4CCN4CC(F)F)nc1c23` (single isomer, unassigned) [Compound 24, 3-(10-((R or S)-1-(2-aminopyridin-3-yl)ethyl)-2-(((S)-1-(2,2-difluoroethyl)azetidin-2-yl)methoxy)-4-fluoro-9,10-dihydro-8H-7-oxa-1,3,6,10-tetraazacyclohepta[de]naphthalen-5-yl)-4-cyclopropyl-5-fluorophenol], the IC50 in assay [1] came out at 3 nM; in assay [2], 11 nM; in assay [3], 290 nM.

Consider `C[C@H](c1cccnc1N)N1CCOc2nc(-c3c(C(F)(F)F)ccc4[nH]ncc34)c(F)c3nc(OC[C@@]45CCCN4C[C@H](F)C5)nc1c23` (single isomer, unassigned) [Compound 26, 3-((1R or 1S)-1-(4-fluoro-2-(((2R,7aS)-2-fluorotetrahydro-1H-pyrrolizin-7a(5H)-yl)methoxy)-5-(5-(trifluoromethyl)-1H-indazol-4-yl)-8,9-dihydro-10H-7-oxa-1,3,6,10-tetraazacyclohepta[de]naphthalen-10-yl)ethyl)pyridin-2-amine], for which the IC50 in assay [1] was 886 nM; in assay [2], greater than 1000 nM; in assay [3] it was greater than 1000 nM.

For `C[C@@H](c1cccnc1N)N1CCOc2nc(-c3c(C(F)(F)F)ccc4[nH]ncc34)c(F)c3nc(OC[C@@]45CCCN4C[C@H](F)C5)nc1c23` (single isomer, unassigned) [Compound 27, 3-((1R or 1S)-1-(4-fluoro-2-(((2R,7aS)-2-fluorotetrahydro-1H-pyrrolizin-7a(5H)-yl)methoxy)-5-(5-(trifluoromethyl)-1H-indazol-4-yl)-8,9-dihydro-10H-7-oxa-1,3,6,10-tetraazacyclohepta[de]naphthalen-10-yl)ethyl)pyridin-2-amine], the IC50 was found to be 2 nM in assay [1], 11 nM in assay [2] and 106 nM in assay [3].

Turning to `CC(c1cccnc1N)N1CCOc2nc(-c3cc(O)cc4ccc(F)c(F)c34)c(F)c3ncnc1c23` (single isomer, unassigned) [Compound 29, (R or S)-4-(10-(1-(2-aminopyridin-3-yl)ethyl)-4-fluoro-9,10-dihydro-8H-7-oxa-1,3,6,10-tetraazacyclohepta[de]naphthalen-5-yl)-5,6-difluoronaphthalen-2-ol], the IC50 in assay [1], in assay [2] and in assay [3] was greater than 1000 nM each time.

With `CC(c1cccnc1N)N1CCOc2nc(-c3cc(O)cc4ccc(F)c(F)c34)c(F)c3ncnc1c23` (single isomer, unassigned) [Compound 30, (R or S)-4-(10-(1-(2-aminopyridin-3-yl)ethyl)-4-fluoro-9,10-dihydro-8H-7-oxa-1,3,6,10-tetraazacyclohepta[de]naphthalen-5-yl)-5,6-difluoronaphthalen-2-ol], the figures for the IC50 in assay [1], in assay [2] and in assay [3] were 31 nM, 64 nM and greater than 1000 nM, respectively.

Consider `CC(c1cccnc1N)N1CCOc2nc(-c3cc(O)cc(Cl)c3C3CC3)c(F)c3nc(OC[C@@H]4CCCN4C)nc1c23` (single isomer, unassigned) [Compound 31, 3-(10-((R or S)-1-(2-aminopyridin-3-yl)ethyl)-4-fluoro-2-(((S)-1-methylpyrrolidin-2-yl)methoxy)-9,10-dihydro-8H-7-oxa-1,3,6,10-tetraazacyclohepta[de]naphthalen-5-yl)-5-chloro-4-cyclopropylphenol], for which the IC50 in assay [1] was 405 nM; in assay [2], greater than 1000 nM; in assay [3], greater than 1000 nM.

Consider `CC(c1cccnc1N)N1CCOc2nc(-c3cc(O)cc(Cl)c3C3CC3)c(F)c3nc(OC[C@@H]4CCCN4C)nc1c23` (single isomer, unassigned) [Compound 32, 3-(10-((R or S)-1-(2-aminopyridin-3-yl)ethyl)-4-fluoro-2-(((S)-1-methylpyrrolidin-2-yl)methoxy)-9,10-dihydro-8H-7-oxa-1,3,6,10-tetraazacyclohepta[de]naphthalen-5-yl)-5-chloro-4-cyclopropylphenol], for which the IC50 in assay [1] stood at 3 nM; in assay [2] it was 6 nM; in assay [3], 50 nM.

As to `Cc1cc(N)cc(-c2nc3c4c(nc(OC[C@@]56CCCN5C[C@H](F)C6)nc4c2F)N(C(C)c2cccnn2)CCO3)c1C(F)(F)F` (single isomer, unassigned) [Compound 128, 3-(4-fluoro-2-(((2R,7aS)-2-fluorotetrahydro-1H-pyrrolizin-7a(5H)-yl)methoxy)-10-((R or S)-1-(pyridazin-3-yl)ethyl)-9,10-dihydro-8H-7-oxa-1,3,6,10-tetraazacyclohepta[de]naphthalen-5-yl)-5-methyl-4-(trifluoromethyl)aniline], the half-maximal inhibitory concentration (IC50) in assay [1] is greater than 100 nM.

As for `Cc1ccc(C(C)N2CCOc3nc(-c4cc(N)c(F)c(C)c4C(F)(F)F)c(F)c4nc(OC[C@@]56CCCN5C[C@H](F)C6)nc2c34)c(N)n1` (single isomer, unassigned) [Compound 252, 3-((R or S)-1-(5-(5-amino-4-fluoro-3-methyl-2-(trifluoromethyl)phenyl)-4-fluoro-2-(((2R,7aS)-2-fluorotetrahydro-1H-pyrrolizin-7a(5H)-yl)methoxy)-8,9-dihydro-10H-7-oxa-1,3,6,10-tetraazacyclohepta[de]naphthalen-10-yl)ethyl)-6-methylpyridin-2-amine], the IC50 in assay [1] was greater than 100 nM.
